Patent publication US9750426B2, “System and method for assessing response to chemotherapy using magnetic resonance elastography” (MAYO FOUNDATION FOR MEDICAL EDUCATION AND RESEARCH, priority 2010, dated 2017)

Tests used:
DoHH2 cells = system: DoHH2 cells
Method: The mice were divided into two groups, the first considered the “control” (N=7) and the second the chemotherapy or “chemo” (N=8) group. […] Following an initial scan to determine baseline stiffness, the control group received an injection of normal saline while the chemo group received 4 mg of cyclophosphamide (160 mg/kg). MRE was performed on each mouse using an experimental setup specifically designed to accommodate the mouse and providing the mouse with the requisite anesthesia, via a constant flow of isofluorane during the image acquisition. MRE was performed at different time points (baseline to 4 days post-injection). The experimental setup included a high-frequency electromechanical driver that was developed to produce localized vibrations in the tumor within the mouse at a frequency of 800 Hz. All experiments were performed on a 3.0 T whole-body MRI scanner using a specialized 6-cm diameter transmit-receive RF coil and an EPI based MRE sequence. The MRE imaging parameters included FOV=5 cm; TRITE=1100/99 msec; motion encoding gradient (MEG) frequency=800 Hz; MEG direction=SI, AP, RL; motion encoding sensitivity=3.98 μm/(π radians); BW=83.0 kHz. Volumetric measurements were obtained using both a caliper and measurements from a T2-weighted image data set in order to quantify treatment response. Elastograms (stiffness maps) were calculated using a Multiple Model Direct Inversion (MMDI) algorithm with a directional filter (Butterworth bandpass filter with cutoff frequencies 2-128 waves/FOV).

Source text for DoHH2 tumor cells: The process 230 starts at process block 232 with either the positioning of the subject in the bore of an MRI system and the coupling of an MRE drive or the positioning of an ex viva sample within an MRE system. […] Thus, the step of positioning the subject for imaging at process block 232 may be initiated within hours to days after the completion of chemotherapy, instead of weeks later, as required in traditional assessment techniques. Once the subject is positioned for MRE imaging, using a high-frequency pulse sequence, such as the example sequence described with respect to FIG. 3, raw MRE data is collected from the subject or sample at process block 234.
After the raw MRE data is collected at process block 234, the data is pre-processed at process block 236. Pre-processing may include minimum discontinuity phase unwrapping, 2-dimensional filtering along, for example, eight evenly spaced directions in the imaging plane and 2-dimensional order-4 Butterworth bandpass filtering with cutoff wave numbers of 1 and 80 waves/FOV. Then, at process block 238, a 2-D phase gradient inversion is used to process the preprocessed data and produce elastograms. The phase gradient inversion may be done, for example, with a 5×5 window. Using the elastograms, at process block 240, regions of interest (ROIs) can be drawn on the tumor where wave penetration and phase signal to noise ratio were visually acceptable. Using the selected ROIs, the mean stiffness values in these regions of interest can then be measured for each slice, at process block 242, and the average of these values can then be reported as a stiffness value of tumors, at process block 244. Using this information, a determination of the response of the tumor to the chemotherapy can be determined.
The tumor cells were maintained in RPMI 1640 medium supplemented with 10% heat-inactivated FCS (Sigma Chemical Co.), 50 U/ml penicillin G, 50 μg/ml gentamicin and 100 μg/ml streptomycin (all from Ufe Technologies, Grand Island, N.Y., USA) with the addition of 10 mM HEPES, 4.5 g/l glucose and 1 mM sodium pyruvate. […]

`O=P1(N(CCCl)CCCl)NCCCO1` (stereo not drawn) [cyclophosphamide] was tested. Which “change in stiffness from baseline at day 4” value (DoHH2 cells; Tukey HSD test, p=0.02) did it give?
Its value is “significant change in stiffness”.

What about the “change in stiffness from baseline at day 3” value (DoHH2 cells; Tukey HSD test, p=0.04) of the same compound?
Its value is “significant change in stiffness”.

And the “change in tumor volume” value (DoHH2 cells; caliper and T2-weighted image measurements, baseline to day 4, p=0.59, no statistically significant change)?
The value was “remained the same or decreased slightly”.

What about the “average shear stiffness at day 4” value (DoHH2 cells; in vivo MRE 800 Hz, 4 mg (160 mg/kg), day 4, N=8, baseline 9.885±1.74 kPa) of the same compound?
Its value is 8.237±1.93 kPa.

What about the “average decrease in shear stiffness from baseline to day 4” value (DoHH2 cells; in vivo MRE, 4 mg (160 mg/kg), N=8) of the same compound?
Its value is 1.649 kPa.

And the “change in stiffness in vivo before three days after injection” value (DoHH2 cells; time points before three days after injection)?
Its value is “No changes in stiffness were observed”.

What about the “tumor stiffness, Mean” value (DoHH2 tumor cells; CB17/SCID mice, subcutaneous DoHH2 tumors, 160 mg/kg (4 mg) intraperitoneally, tumors excised four hours later, MRE ex vivo, N=5) of the same compound?
The value was 21.82 kPa.

What about the “stiffness change 4 hours after drug administration (ex vivo)” value (DoHH2 tumor cells; ex vivo mouse tumor studies, 4 hours after drug administration) of the same compound?
The value was “stiffness increased”.

And the “change in tumor stiffness measured by MRE versus saline” value (DoHH2 tumor cells; one-sided T-test between chemo and saline groups, p value 0.034, 4 hours after dosing)?
The value was “significant change in the tumor stiffness”.
